Tested on: MRSA ATCC 43300
Test: Post-antibiotic effect (PAE)
Type: cell-based, Staphylococcus aureus
Procedure: PAE has been considered as pharmacodynamic assistance which provides a reference for the rational formulation of dosing regimen. PAE refers to the temporary suppression of bacterial growth following transient antibiotic treatment. PAE assays were conducted for compounds 12c and 22c.
PAE is calculated from growth curves on the difference in time required for the number (1 log10 CFU/mL) of drug-exposed and unexposed microbes. […] The PAE values of compounds 12c and 22c increased with increasing incubation time.
PAE of compounds 12c and 22c on MRSA ATCC 43300 was determined using MH broth according to our previous work. The final concentration of MRSA was 1 × 10^6 CFU/mL by dilution with MH broth. Compounds 12c, 22c and tiamulin were supplemented in the suspension at a final concentration of 2 × MIC and 4 × MIC, respectively. The negative control group contained untreated MRSA bacterial cells. The test tubes were incubated with a 37 °C constant temperature vibration incubator for 1 and 2 h. After incubation, the test compound was removed from the sample by diluting 1000-fold with the preheated MH broth. Next, 100 μL of suspension from each culture was 10-fold diluted in sterile saline and inoculated on MH agar plates at 0, 2, 4, 6 and 8 h after inoculation. The number of colonies was calculated after incubation at 37 °C for 24 h. The experiments were performed in triplicate.

Compound: C=C[C@]1(C)C[C@@H](OC(=O)CSc2ccc(Nc3nc(Cl)nc4c3cnn4-c3ccc(F)c(F)c3)cc2)[C@]2(C)[C@H](C)CC[C@]3(CCC(=O)[C@H]32)[C@@H](C)[C@@H]1O [Compound 22c, 22-[4-(6-Chloro-1-(3,4-difluorophenyl)-1H-pyrazolo[3,4-d]pyrimidine-4-yl)amino-Phenylsulfanyl]-22-deoxypleuromutilin]
- PAE (2 × MIC, exposure for 1 h): 0.92 h
- PAE (2 × MIC, exposure for 2 h): 2.18 h
- PAE (4 × MIC, exposure for 1 h): 0.93 h
- PAE (4 × MIC, exposure for 2 h): 2.68 h
